Experimental data reported in PubChem BioAssay AID210 (DTP/NCI, 2004).
Where “and” joins values, the source holds several entries; their conditions need not be identical. Equal entries are not always repeated. Toxic doses and inconclusive results are not listed. How the source made its calls: active means survival T/C of 150% or more; inactive means T/C below 125% in these data. *1 amine or outer side, *2 acyl side, *3 side chain or, on linkers, in order; H or OH if unused. Where a SMILES comes first, the peptide text is derived from it. Bridges are numbered along the chain shown (N, C = ends). Roman numbers before positions name the chains, in order. [ ]: non-standard residue; d: D form. Actinocin(1to9) = Cc1c2oc3c(C)ccc(C(=O)[*:2])c3nc-2c(C(=O)[*:1])c(N)c1=O; NMeV = CN[CH](C(=O)O)C(C)C; Aze = O=C(O)[CH]1CCN1; Sar = CNCC(=O)O

System: CD2F1 mice, ip Colon 26 adenocarcinoma, median survival T/C
Assay: NCI In Vivo Anticancer Drug Screen. Data for tumor model Colon 26 Adenocarcinoma (intraperitoneal) in CD2F1 (CDF1) mice
Conditions: endpoint: median survival time, higher = longer survival
Procedure: The antitumor activity of compounds was measured in mice bearing transplantable tumors. Survival or tumor size were measured and the results are expressed as the measurement made in the treated group (T) divided by the measurement made in the vehicle treated control group (C). The tumor model used in this assay is Colon 26 Adenocarcinoma (intraperitoneal) in CD2F1 (CDF1) mice

[1] = dose: 12.5 mg/kg/injection, schedule: Q04DX003 (ip), vehicle: saline with Tween-80
[2] = dose: 25.0 mg/kg/injection, schedule: Q04DX003 (ip), vehicle: saline with Tween-80
[3] = dose: 50.0 mg/kg/injection, schedule: Q04DX003 (ip), vehicle: saline with Tween-80
[4] = dose: 100.0 mg/kg/injection, schedule: Q04DX003 (ip), vehicle: saline with Tween-80
[5] = dose: 200.0 mg/kg/injection, schedule: Q04DX003 (ip), vehicle: saline with Tween-80
[6] = dose: 12.5 mg/kg/injection, schedule: Q04DX002 (ip), vehicle: saline with Tween-80
[7] = dose: 25.0 mg/kg/injection, schedule: Q04DX002 (ip), vehicle: saline with Tween-80
[8] = dose: 50.0 mg/kg/injection, schedule: Q04DX002 (ip), vehicle: saline with Tween-80

Measured: T/C

N/C(=N\O)c1cn(C2OC(CO)C(O)C2O)c2ncnc(N)c12 (stereo unspecified)
active: dose: 16.0 mg/kg/injection, schedule: Q04DX003 (ip), vehicle: Klucel (hydroxypropylcellulose) (HPC) 167 % of control
inactive: dose: 2.0 mg/kg/injection, schedule: Q04DX003 (ip), vehicle: Klucel (hydroxypropylcellulose) (HPC) 116 % of control

Cc1ncc([N+](=O)[O-])n1CCSC(N)=O
inactive: [1] 94 % of control | [2] 124 % of control and 96 % of control | [3] 89 % of control | [4] 105 % of control and 95 % of control | [5] 90 % of control and 94 % of control | dose: 400.0 mg/kg/injection, schedule: Q04DX003 (ip), vehicle: saline with Tween-80 96 % of control

Nc1ncnc2c1ncn2C1OC(CO)C(O)C1O (stereo unspecified)
inactive: dose: 50.0 mg/kg/injection, schedule: Q04DX002 (ip), vehicle: suspension in saline 101 % of control | dose: 64.0 mg/kg/injection, schedule: Q04DX002 (ip), vehicle: Klucel (hydroxypropylcellulose) (HPC) 90 % of control | dose: 100.0 mg/kg/injection, schedule: Q04DX002 (ip), vehicle: suspension in saline 113 % of control | dose: 128.0 mg/kg/injection, schedule: Q04DX002 (ip), vehicle: Klucel (hydroxypropylcellulose) (HPC) 93 % of control | dose: 200.0 mg/kg/injection, schedule: Q04DX002 (ip), vehicle: suspension in saline 108 % of control | dose: 256.0 mg/kg/injection, schedule: Q04DX002 (ip), vehicle: Klucel (hydroxypropylcellulose) (HPC) 91 % of control | dose: 400.0 mg/kg/injection, schedule: Q04DX002 (ip), vehicle: suspension in saline 107 % of control | dose: 800.0 mg/kg/injection, schedule: Q04DX002 (ip), vehicle: suspension in saline 122 % of control | dose: 1024.0 mg/kg/injection, schedule: Q04DX002 (ip), vehicle: Klucel (hydroxypropylcellulose) (HPC) 98 % of control

Cc1cc(C)c(-c2cc(O)c(C)cc2O)c(C)c1
inactive: [1] 107 % of control | [2] 109 % of control | [3] 106 % of control | [4] 112 % of control | [5] 112 % of control

C1CCC2[N-]CC3CCCCC3[N-]CC3CCCCC3[N-]CC3CCCCC3[N-]CC2C1.[Cu] (stereo unspecified)
inactive: dose: 0.63 mg/kg/injection, schedule: Q04DX003 (ip), vehicle: Klucel (hydroxypropylcellulose) (HPC) 110 % of control | dose: 1.25 mg/kg/injection, schedule: Q04DX003 (ip), vehicle: Klucel (hydroxypropylcellulose) (HPC) 107 % of control | dose: 2.5 mg/kg/injection, schedule: Q04DX003 (ip), vehicle: Klucel (hydroxypropylcellulose) (HPC) 105 % of control | dose: 5.0 mg/kg/injection, schedule: Q04DX003 (ip), vehicle: Klucel (hydroxypropylcellulose) (HPC) 111 % of control | dose: 10.0 mg/kg/injection, schedule: Q04DX003 (ip), vehicle: Klucel (hydroxypropylcellulose) (HPC) 122 % of control | dose: 20.0 mg/kg/injection, schedule: Q04DX003 (ip), vehicle: Klucel (hydroxypropylcellulose) (HPC) 111 % of control

COc1cc(C)c2c(c1C=O)Oc1c(c(C)c(O)c3c1C(O)OC3=O)OC2=O (stereo unspecified)
inactive: dose: 3.12 mg/kg/injection, schedule: Q04DX003 (ip), vehicle: saline with Tween-80 103 % of control | dose: 6.25 mg/kg/injection, schedule: Q04DX003 (ip), vehicle: saline with Tween-80 103 % of control | [1] 104 % of control | [2] 101 % of control | [3] 112 % of control

Cc1c2oc3c(C)ccc(C(=O)NC4C(=O)NC(C(C)C)C(=O)N5CCCC5C(=O)N(C)CC(=O)N(C)C(C(C)C)C(=O)OC4C)c3nc-2c(C(=O)NC2C(=O)NC(C(C)C)C(=O)N3CCC3C(=O)N(C)CC(=O)N(C)C(C(C)C)C(=O)OC2C)c(N)c1=O (stereo unspecified) (I: TV[Aze][Sar][NMeV] / II: TVP[Sar][NMeV]; ester I:1-I:C, II:1-II:C; linker I:N-II:N via Actinocin(1to9); configuration not given here)
active: dose: 0.65 mg/kg/injection, schedule: Q04DX003 (ip), vehicle: saline + alcohol 151 % of control | dose: 450.0 micrograms/kg/injection, schedule: Q04DX003 (ip), vehicle: saline + alcohol 151 % of control | dose: 750.0 micrograms/kg/injection, schedule: Q04DX003 (ip), vehicle: saline + alcohol 157 % of control
inactive: dose: 0.08 mg/kg/injection, schedule: Q04DX003 (ip), vehicle: saline + alcohol 100 % of control | dose: 0.14 mg/kg/injection, schedule: Q04DX003 (ip), vehicle: saline + alcohol 123 % of control | dose: 0.23 mg/kg/injection, schedule: Q04DX003 (ip), vehicle: saline + alcohol 119 % of control | dose: 270.0 micrograms/kg/injection, schedule: Q04DX003 (ip), vehicle: saline + alcohol 108 % of control | dose: 375.0 micrograms/kg/injection, schedule: Q01DX001 (ip), vehicle: saline + alcohol 119 % of control | dose: 750.0 micrograms/kg/injection, schedule: Q01DX001 (ip), vehicle: saline + alcohol 102 % of control

CN1C(=O)NC(c2ccc(Cl)cc2)(c2ccc(Cl)cc2)C1=O
inactive: dose: 12.5 mg/kg/injection, schedule: Q04DX002 (ip), vehicle: distilled water + Tween-80 106 % of control | [6] 105 % of control | dose: 25.0 mg/kg/injection, schedule: Q04DX002 (ip), vehicle: distilled water + Tween-80 100 % of control | [7] 111 % of control | dose: 50.0 mg/kg/injection, schedule: Q04DX002 (ip), vehicle: distilled water + Tween-80 114 % of control | [8] 97 % of control | dose: 100.0 mg/kg/injection, schedule: Q04DX002 (ip), vehicle: saline with Tween-80 102 % of control | dose: 200.0 mg/kg/injection, schedule: Q04DX002 (ip), vehicle: saline with Tween-80 91 % of control | dose: 400.0 mg/kg/injection, schedule: Q04DX002 (ip), vehicle: saline with Tween-80 91 % of control

Cc1cc(=O)n2c3c(c4c(cc13)c(CN(C)C)cc(=O)n4C)OC2
inactive: dose: 6.25 mg/kg/injection, schedule: Q04DX002 (ip), vehicle: saline with Tween-80 99 % of control | [6] 99 % of control | [7] 107 % of control | [8] 102 % of control

NCCNc1ccc(NCCN)c2c1C(=O)c1ccccc1C2=O
active: dose: 1.5 mg/kg/injection, schedule: Q01DX009 (ip), vehicle: acid diluted with saline 171 % of control | dose: 2.0 mg/kg/injection, schedule: Q01DX009 (ip), vehicle: acid diluted with saline 164 % of control | dose: 3.0 mg/kg/injection, schedule: Q01DX009 (ip), vehicle: acid diluted with saline 263 % of control | dose: 4.0 mg/kg/injection, schedule: Q01DX009 (ip), vehicle: acid diluted with saline 175 % of control | dose: 6.0 mg/kg/injection, schedule: Q01DX009 (ip), vehicle: acid diluted with saline 254 % of control | dose: 8.0 mg/kg/injection, schedule: Q01DX009 (ip), vehicle: acid diluted with saline 213 % of control | dose: 12.0 mg/kg/injection, schedule: Q01DX009 (ip), vehicle: acid diluted with saline 214 % of control | dose: 16.0 mg/kg/injection, schedule: Q01DX009 (ip), vehicle: acid diluted with saline 227 % of control

COC1C(O)C(C)OC(OC2C(Oc3cccc4c(O)c5c(=O)oc6ccc(C)c7c(=O)oc(c34)c5c67)OC(C)C(O)C2O)C1O (stereo unspecified)
inactive: dose: 12.5 mg/kg/injection, schedule: Q04DX002 (ip), vehicle: Klucel (hydroxypropylcellulose) (HPC) 105 % of control and 112 % of control | dose: 12.5 mg/kg/injection, schedule: Q04DX003 (ip), vehicle: Klucel (hydroxypropylcellulose) (HPC) 106 % of control | dose: 25.0 mg/kg/injection, schedule: Q04DX002 (ip), vehicle: Klucel (hydroxypropylcellulose) (HPC) 107 % of control and 118 % of control | dose: 25.0 mg/kg/injection, schedule: Q04DX003 (ip), vehicle: Klucel (hydroxypropylcellulose) (HPC) 116 % of control | dose: 50.0 mg/kg/injection, schedule: Q04DX002 (ip), vehicle: Klucel (hydroxypropylcellulose) (HPC) 106 % of control | dose: 50.0 mg/kg/injection, schedule: Q04DX003 (ip), vehicle: Klucel (hydroxypropylcellulose) (HPC) 106 % of control | dose: 100.0 mg/kg/injection, schedule: Q04DX002 (ip), vehicle: Klucel (hydroxypropylcellulose) (HPC) 107 % of control and 100 % of control | dose: 100.0 mg/kg/injection, schedule: Q04DX003 (ip), vehicle: Klucel (hydroxypropylcellulose) (HPC) 110 % of control
